These results are taken from patent EP3053944B1, “METHOD FOR PRODUCING POLYALKYLENE GLYCOL DERIVATIVE HAVING AMINO GROUP AT END, POLYMERIZATION INITIATOR FOR USE IN THE SAME, AND ALCOHOL COMPOUND AS RAW MATERIAL FOR THE POLYMERIZATION INITIATOR” (Shin-Etsu Chemical Co., Ltd., priority 2014, dated 2016).

Common to all, as to assay type: physicochemical
Data set [1] can be described thus: Stability of the initiator when the alkoxide is formed (migration of protective group). Particulars: on synthesis of the alkoxide. The source says:
Since the silicon-oxygen bond is generally stronger than the silicon-nitrogen bond, there is a possibility that exchange reaction between the silicon-nitrogen bond and the silicon-oxygen bond progresses within a molecule during synthesis of a silyl-protected amino group-containing alkoxide in the case in which a five-membered ring or six-membered ring structure containing a silicon-oxygen bond can be formed. Therefore, when polymerization is tried using, for example, a compound represented by the following general formula (0a) as a polymerization initiator, polymerization progresses from the amino group side, not from the alkoxide side, and a target polyalkylene glycol derivative cannot be obtained. In contrast, in the polymerization initiator (for example, the following formulas (1a) and (2a)) represented by the general formulas (1) and/or (2) for use in the present embodiment 2, production of the five-membered or six-membered ring containing a silicon-oxygen bond is suppressed by extending the length of a chain that connects nitrogen and oxygen that constitutes O^-M^+ to 4 or more, so that a stable structure can be formed in a state of being an alkoxide. As a result thereof, polymerization progresses from the alkoxide side, and the target polyalkylene glycol derivative can be obtained. [drawing 36]

Data set [2] can be described thus: Solubility of polymerization initiators in polymerization solvents (visual observation). Also noted: key to solubility to polymerization solvents: Toluene / solubility to polymerization solvents: THF: Excellent: In the case in which cloudiness was not observed at all in the solution by visual observation, the initiator was shown as "excellent"; Poor: in the case in which cloudiness was observed or the initiator did not dissolve at all, or in the case in which the initiator decomposed when the alkoxide was formed from the initiator, the initiator was shown as "poor". Particulars: for solubility to polymerization solvents: THF: initiator dissolved in THF at 20 wt.%; for solubility to polymerization solvents: THF / solubility to polymerization solvents: Toluene: visual observation; for solubility to polymerization solvents: Toluene: initiator dissolved in toluene at 20 wt.%; for dissolution in the solvent(s): summary in words of Table 8, THF or toluene, 20 wt.%. The source says:
Results of solubility of the initiators 1-2, 6-7, 9-10 and 12, reference initiators 3-5, 8 and 11, and comparative initiators 1 to 8 to polymerization solvents are shown below. THF in each of the products of the initiators 1-2, 6-7, 9-10 and 12, reference initiators 3-5, 8 and 11, and the comparative initiators 1 to 8 synthesized above was distilled away under reduced pressure to extract the polymerization initiators. The results obtained by dissolving each polymerization initiator in each polymerization solvent at a concentration of 20 wt.% are shown. […]

A short description of data set [3]: Visual check for salt precipitation and cloudiness in the THF solution after initiator synthesis. The source says: Among others, as the solvent for use in the [Pre-Step 2], the same solvent as will be used as the polymerization solvent in the subsequent [Step a] as will be described later is preferably used. The reason is because whether the polymerization initiator synthesized in the [Pre-Step 2] dissolves or not in the polymerization solvent for use in the [Step a] can be confirmed in advance during the synthesis of the polymerization initiator in the [Pre-Step 2]. […] […] By confirming whether the precipitation of a salt and […] of the polymerization initiator represented by the general formula (I) in THF, the solubility of the polymerization initiator in the polymerization solvent in the subsequent [Step a] can be confirmed in advance.
In a glove box under a nitrogen atmosphere, […], and after the mineral oil was washed with hexane to be separated, vacuum drying was performed for about two hours to obtain 0.50 g (12.5 mmol) of potassium hydride. Into the flask, 7.71 g of distilled THF was added with a syringe, and 4.44 g (12.8 mmol) of the compound represented by the general formula (iA) was dripped at normal temperature. Stirring was performed at normal temperature for 1 hour and then at 50°C for 2 hours, so that 12.40 g (1.02 mmol/g) of a THF solution of the compound represented by the general formula (IA) was produced. […]

Consider `CC[Si](CC)(CC)N(CCCO)[Si](CC)(CC)CC` [Comparative initiator 1, reference compound], for which the “stability of the initiator” value in data set [1] is “changes in the position protected by a protective group progressed”. In data set [2], the “solubility to polymerization solvents: THF” value (“solubility … THF” below) was “Poor” and the “solubility to polymerization solvents: Toluene” value (shortened to “solubility … Toluene”) is reported as “Poor”.
Consider `C[Si](C)(C)N(CCCO)[Si](C)(C)C` [Comparative initiator 2, reference compound], for which, in data set [1], the “stability of the initiator” value is recorded as “changes in the position protected by a protective group progressed”. For the same molecule, in data set [2], the “solubility … THF” value is recorded as “Poor” and the “solubility … Toluene” value is recorded as “Poor”.
On to `C=CCN(CC=C)CCCO` [Comparative initiator 3, reference compound], for which, in data set [2], the “solubility … THF” value is “Poor”, the “solubility … Toluene” value is listed as “Poor” and the “dissolution in the solvent(s)” value is listed as “did not dissolve in the solvents”.
On to `O=C1c2ccccc2C(=O)N1CCCO` [Comparative initiator 4, reference compound], for which, in data set [2], the “solubility … THF” value is “Poor”, the “solubility … Toluene” value is reported as “Poor” and the “dissolution in the solvent(s)” value is reported as “did not dissolve in the solvents”.
On to `CC(C)(C)[Si](C)(C)NCCCO` [Comparative initiator 5, reference compound], for which, in data set [1], the “stability of the initiator” value is “changes in the position protected by a protective group progressed”. Moreover, in data set [2], the “solubility … THF” value is reported as “Poor” and the “solubility … Toluene” value is “Poor”.
For the molecule `C[Si]1(C)CC[Si](C)(C)N1CCCO` [Comparative initiator 6, reference compound], the “stability of the initiator” value in data set [1] is given as “changes in the position protected by a protective group progressed”. Besides, in data set [2], the “solubility … THF” value is listed as “Poor” and the “solubility … Toluene” value is reported as “Poor”.
As for `OCCCN(Cc1ccccc1)Cc1ccccc1` [Comparative initiator 7, reference compound], in data set [2], the “solubility … THF” value is reported as “Poor”, the “solubility … Toluene” value was “Poor” and the “dissolution in the solvent(s)” value was “did not dissolve in the solvents”.
As to `CC(C)(C)OC(=O)N(CCCO)C(=O)OC(C)(C)C` [Comparative initiator 8, reference compound], in data set [2], the “solubility … THF” value was “Poor”, the “solubility … Toluene” value is reported as “Poor” and the “dissolution in the solvent(s)” value was “did not dissolve in the solvents”.
Take `CC[Si](CC)(CC)N(CCCOCCO)[Si](CC)(CC)CC` [Initiator 1]: the “stability of the initiator” value in data set [1] is “stably existed”. Also, in data set [2], the “solubility … THF” value was “Excellent” and the “dissolution in the solvent(s)” value is reported as “dissolved in the solvent”.
The matching figures for `CC[Si](CC)(CC)N(CCCOCCOCCO)[Si](CC)(CC)CC` [Initiator 2]: “stably existed”, “Excellent” and “dissolved in the solvent”.
With `CC(C)(C)[Si](C)(C)NCCCOCCO` [Initiator 6], the “stability of the initiator” value in data set [1] was “stably existed”. Further, in data set [2], the “solubility … THF” value is recorded as “Excellent” and the “dissolution in the solvent(s)” value was “dissolved in the solvent”.
In the case of `C[Si]1(C)CC[Si](C)(C)N1CCCOCCO` [Initiator 7], the “stability of the initiator” value in data set [1] is reported as “stably existed”. Also, in data set [2], the “solubility … THF” value is “Excellent” and the “dissolution in the solvent(s)” value is reported as “dissolved in the solvent”.
Take `CC(C)(C)OC(=O)N(CCCOCCO)C(=O)OC(C)(C)C` [Initiator 9]: in data set [2], the “solubility … THF” value is on record as “Excellent” and the “dissolution in the solvent(s)” value is listed as “dissolved in a solvent”.
For `CC[Si](CC)(CC)N(CCCCCCO)[Si](CC)(CC)CC` [Initiator 10], the “stability of the initiator” value in data set [1] is “stably existed”. In data set [2], the “solubility … Toluene” value was “Excellent” and the “dissolution in the solvent(s)” value is reported as “dissolved in the solvent”.
For the molecule `C[Si]1(C)CC[Si](C)(C)N1CCCCCCO` [Initiator 12], in data set [1], the “stability of the initiator” value is “stably existed”. In data set [2], the “solubility … Toluene” value is “Excellent” and the “dissolution in the solvent(s)” value is on record as “dissolved in the solvent”.
On to `C=CCN(CC=C)CCCOCCO` [Ref 3], for which, in data set [2], the “solubility … THF” value is reported as “Excellent” and the “dissolution in the solvent(s)” value is listed as “dissolved in a solvent”.
In the same order, the values of `C=CCN(CC=C)CCCOCCOCCO` [Ref 4] are “Excellent” and “dissolved in a solvent”.
The matching figures for `O=C1c2ccccc2C(=O)N1CCCOCCOCCOCCO` [Ref 5]: “Excellent” and “dissolved in a solvent”.
Consider `OCCOCCOCCOCCCN(Cc1ccccc1)Cc1ccccc1` [Ref 8], for which, in data set [2], the “solubility … THF” value is “Excellent” and the “dissolution in the solvent(s)” value is recorded as “dissolved in a solvent”.
`C=CCN(CC=C)CCCCCCO` [Ref 11]: in data set [2], the “solubility … Toluene” value is given as “Excellent” and the “dissolution in the solvent(s)” value is listed as “dissolved in a solvent”.
On to `CC[Si](CC)(CC)N(CCCOCCO)[Si](CC)(CC)CC` [iA], for which the “Precipitation of a salt and cloudiness” value is “not observed” in data set [3] ((IA) mass/THF solution mass=22.3 wt.%, prepared with potassium naphthalene) and “not observed” in data set [3] ((IA) mass/THF solution mass=39.8 wt.%, prepared with potassium hydride).
